PubChem BioAssay (NCI)
≈ marks a conversion by molar mass, not a printed value.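 Grown in 96-well plates, cells were treated for 48 hours with each compound at five concentrations. Insufficient inhibition: endpoint recorded as highest concentration tested. Here, GI50 denotes the concentration required for 50% inhibition of growth. TGI: total growth inhibition.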

Experiments:
Assay in all cases: NCI anticancer screen, dose series, 48 h
[1] = test system: ACHN renal
[2] = test system: BT-549 breast
[3] = test system: DU-145 prostate
[4] = test system: MDA-MB-435
[5] = test system: NCI-H522 lung
[6] = test system: SR leukemia
[7] = test system: T-47D breast
[8] = test system: A498 renal
[9] = test system: DMS 114 small cell lung
[10] = test system: DMS 273 small cell lung
[11] = test system: M19-MEL melanoma
[12] = test system: SNB-78 CNS
[13] = test system: XF 498 CNS

SMILES	TGI [1]	TGI [2]	TGI [3]	TGI [4]	TGI [5] [µM]	TGI [6]	TGI [7]	TGI [8] [µM]	TGI [9] [µM]	TGI [10] [µM]	TGI [11] [µM]	TGI [12] [µM]	TGI [13] [µM]	GI50 [1]	GI50 [2]	GI50 [3]	GI50 [4]	GI50 [5] [µM]	GI50 [7]	GI50 [6] [µg/mL]
Clc1ccc(N=c2oc3ccccc3cc2-c2nc3ccccc3[nH]2)c(Cl)c1	> 100 µM	> 100 µM	> 100 µM	> 100 µM	> 100	> 100 µM	> 100 µM													
NCCCCNCCCNC(=O)c1nc(-c2csc(CCN)n2)sc1Cl	> 100 µM				> 100	> 100 µM		> 100	> 100	> 100	> 100	> 100	> 100							
COc1cc(S(=O)(=O)Nc2ccc(C3=NNC(c4ccccc4)C3)cc2)ccc1F (stereo unspecified)	> 100 µM	> 100 µM	> 100 µM	> 100 µM	> 100		> 100 µM							35.2 µM	> 100 µM	76.1 µM	47.2 µM	38	54.2 µM	
COc1cc(/C=C2/N=C(c3ccccc3)N(C3=NNC4(C(=O)N3)c3ccccc3-c3ccccc34)NC2=O)ccc1O	123 µg/mL	47.5 µg/mL	63.6 µg/mL	54.4 µg/mL		> 150 µg/mL	65 µg/mL							36.3 µg/mL	25.9 µg/mL	31.3 µg/mL	26.7 µg/mL		17 µg/mL	48.3 (≈ 86.8 µM)
C#CCn1c(=O)c(C#N)c(O)c2cc3ccccc3nc21					> 100			> 100	> 100	> 100	> 100	> 100	> 100							
O=C(N[C@H]1c2ccsc2/C(=N/O)[C@H]1O)C(F)(F)F		> 100 µM	> 100 µM	> 100 µM		> 100 µM	> 100 µM	> 100												
CC1(Cl)CC2C(CC1Sc1nnnn1-c1ccccc1)C2(C)C (stereo unspecified)	> 100 µM					> 100 µM			> 100	> 100	> 100	> 100								
CC(=O)Oc1ccc(C2COc3cc(OC(C)=O)c(OC(C)=O)cc3C2)cc1 (stereo unspecified)					7.78			13.8	17.1	61.6	33.2	80.2	25.9							
